Laboratory results taken from article doi:10.1101/2025.11.28.691146v1 (biorxiv, 2025).

Experiments:
[1] = target: T1, McrA (Streptomyces lavendulae, UniProt P43485); assay: thermal shift, label-free intrinsic fluorescence; type: binding; conditions: read-out: dTm at 1 mM
T1 sequence (P43485 1-448): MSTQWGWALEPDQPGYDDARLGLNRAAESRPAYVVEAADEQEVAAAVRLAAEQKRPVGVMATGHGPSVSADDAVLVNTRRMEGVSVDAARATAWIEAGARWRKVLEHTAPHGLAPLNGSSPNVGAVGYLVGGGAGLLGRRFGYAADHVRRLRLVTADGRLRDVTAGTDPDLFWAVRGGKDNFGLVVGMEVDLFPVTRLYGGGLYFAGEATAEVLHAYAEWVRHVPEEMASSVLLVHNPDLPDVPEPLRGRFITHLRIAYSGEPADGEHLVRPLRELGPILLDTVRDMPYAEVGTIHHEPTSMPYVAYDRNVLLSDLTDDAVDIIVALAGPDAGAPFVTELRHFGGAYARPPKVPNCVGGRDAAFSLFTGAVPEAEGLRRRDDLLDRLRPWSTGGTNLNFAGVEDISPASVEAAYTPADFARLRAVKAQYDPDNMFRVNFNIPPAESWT

[2] = target: T1, McrA; assay: microscale thermophoresis; type: binding

CO[C@@]12[C@H](COC(N)=O)C3=C(C(=O)C(C)=C(N)C3=O)N1C[C@@H]1N[C@@H]12 [mitomycin C]
ΔTm at 1000 µM [1]: 0.5 °C | Kd [2]: 15.9 ± 4.5 µM
